Test results reported in paper PMC6017654, “Ionic Liquid-Promoted Synthesis of Novel Chromone-Pyrimidine Coupled Derivatives, Antimicrobial Analysis, Enzyme Assay, Docking Study and Toxicity Study” (Molecules : A Journal of Synthetic Chemistry and Natural …, 2018).
≈ marks a conversion by molar mass, not a printed value. Where two headings read alike, the source gives them in different places.

Legend:
[1] = biological target: DdlB from E.coli (Escherichia coli, UniProt P07862); assay: D-Alanine-D-alanine ligase (DdlB) enzyme inhibition, malachite green method; type: biochemical; conditions: 37 °C, 30 min incubation, 5% DMSO
Procedure: The key enzyme involved in the peptidoglycan biosynthesis is D-alanine-D-alanine ligase (Ddl), making it an important target for drug discovery. Inhibition of DdlB as an essential enzyme in either Gram-positive or Gram-negative organisms leads to the loss of cell shape and integrity followed by bacterial death. The synthesized derivatives 4(a–f) and 6(a–f) were tested for their inhibitory activity on DdlB from E.coli. The results are presented as IC50 values.
The D-Ala-adding activity of DdlB ligase was monitored by the detection of orthophosphate generated during the reaction based on the colorimetric malachite green method described by Walsh et al.. […] All the compounds were soluble in the assay mixture containing 5% DMSO. After 30 min of incubation, 100 µL Biomol reagent was added. After 5 min, absorbance was read at 650 nm. Residual activity was calculated with respect to a similar assay without inhibitor. To exclude possible non-specific (promiscuous) inhibitors, representative compounds 4(a–f) and 6(a–f) were also tested in the presence of Tween (0.003%), Triton X-114 (0.005%), and SDS (420 µM), as described by McGovern et al.. No significant differences were found when compared to measurements without detergents.

[2] = system: Escherichia coli 1411; assay: In vitro antibacterial activity (MIC100, two fold serial dilution, NCCLS); type: cell-based; conditions: read-out: MIC100
Procedure: (§1) All the synthesized compounds 4(a–f) and 6(a–f) were screened for their in vitro antibacterial activity against Staphylococcus aureus (NCIM-2901), Escherichia coli 1411 (standard laboratory strains) and Escherichia coli SM1411 (an acrAB deficient derivative of 1411). Minimum inhibitory concentration (MIC100) values were determined using methods recommended by National Committee for Clinical Laboratory Standards (NCCLS). Dimethyl sulfoxide (DMSO) was used as solvent control.
(§2) All the synthesized compounds 4(a–f) and 6(a–f) were screened for their in vitro antibacterial activity against Staphylococcus aureus (NCIM-2901) and Escherichia coli 1411 (standard laboratory strains) and Escherichia coli SM1411 (an acrAB deficient derivative of 1411). Minimum inhibitory concentration (MIC100) values were determined using the method recommended by National Committee for Clinical Laboratory Standards (NCCLS). In vitro antibacterial activities of the synthesized compounds 4(a–f) and 6(a–f) were tested in Nutrient Broth (NB) for Bacteria by the two fold serial dilution method. Seeded broth (broth containing microbial spores) was prepared in NB from 24 h old bacterial cultures on nutrient agar (Hi-media) at 37 ± 1 °C. The bacterial suspension was adjusted with sterile saline to a concentration of […]. The synthesized compounds and standard drug D-cycloserine were prepared by two fold serial dilutions to obtain the required concentrations. The tubes were incubated in BOD incubators at 37 ± 1 °C for bacteria. The MICs were recorded by visual observations after 24 h (for bacteria) of incubation.

[3] = system: Escherichia coli SM1411 (an acrAB deficient derivative of 1411); assay: as above; type: cell-based; conditions: 24 h, read-out: MIC100
Procedure: as §1, §2

[4] = system: Staphylococcus aureus (NCIM-2901); assay: as above; type: cell-based; conditions: for MIC: Staphylococcus aureus
Procedure: as §1, §2

[5] = system: A. flavus; assay: In vitro antifungal activity (MIC100, CLSI/NCCLS); type: cell-based; conditions: Aspergillus flavus; A. fla.; average of three readings; read-out: MIC 100
Procedure: (§3) The newly synthesized derivatives 4(a–f) and 6(a–f) were screened for their in vitro antifungal activity against different yeast and filamentous fungal pathogens. Minimum inhibitory concentration (MIC100) values for in vitro antifungal activity were determined by the methods recommended by National Committee for Clinical Laboratory Standards (NCCLS). Miconazole was used as standard drug. Dimethyl sulfoxide (DMSO) was used as solvent control.
(§4) In vitro antifungal activity was determined as per CLSI (formerly, NCCLS) guidelines. […] The medium yeast nitrogen base was dissolved in phosphate buffer pH 7 and it was autoclaved at 110 °C for 10 min. With each set a growth control without the antifungal agent and solvent control DMSO were included. The fungal strains were freshly sub cultured on to Sabouraud dextrose agar (SDA) and incubated at 25 °C for 72 h. The fungal cells were suspended in sterile distilled water and diluted to get 10^5 cells/mL. Further, ten microlitres of the standardized suspension was inoculated onto the control plates and the media incorporated with the antifungal agents. The inoculated plates were incubated at 25 °C for 48 h. The readings were taken at the end of 48 h and 72 h. The MIC was the lowest concentration of drug preventing growth of macroscopically visible colonies on drug containing plates when there was visible growth on the drug free control plates.

[6] = system: Aspergillus fumigates; assay: In vitro antifungal activity (MIC100, CLSI/NCCLS); type: cell-based; conditions: A. fum., average of three readings, read-out: MIC 100
Procedure: as §3, §4

[7] = system: Aspergillus niger; assay: In vitro antifungal activity (MIC100, CLSI/NCCLS); type: cell-based; conditions: A. nig., average of three readings, read-out: MIC 100
Procedure: as §3, §4

[8] = system: Candida albicans; assay: In vitro antifungal activity (MIC100, CLSI/NCCLS); type: cell-based; conditions: C. alb., average of three readings, read-out: MIC 100
Procedure: as §3, §4

[9] = system: Candida glabrata; assay: In vitro antifungal activity (MIC100, CLSI/NCCLS); type: cell-based; conditions: Nakaseomyces glabratus; C. glab.; average of three readings; read-out: MIC 100
Procedure: as §3, §4

[10] = system: Cryptococcus neoformans; assay: In vitro antifungal activity (MIC100, CLSI/NCCLS); type: cell-based; conditions: C. neo., average of three readings, read-out: MIC 100
Procedure: as §3, §4

[11] = system: Fusarium oxysporum; assay: In vitro antifungal activity (MIC100, CLSI/NCCLS); type: cell-based; conditions: F. oxy., average of three readings, read-out: MIC 100
Procedure: as §3, §4

[12] = NCIM2901, 24 h, read-out: MIC100, S. aureus NCIM-2901, average of three readings

Structure (SMILES) | IC50 [1] [µM] | MIC ([2]; Escherichia coli, 1411, 24 h) [µg/mL] | MIC [3] [µg/mL] | MIC [4, 12] [µg/mL] | MIC [5] [µg/mL] | MIC [6] [µg/mL] | MIC [7] [µg/mL] | MIC [8] [µg/mL] | MIC [9] [µg/mL] | MIC [10] [µg/mL] | MIC [11] [µg/mL] | melting point [°C] | MIC ([2]; Escherichia coli, E. coli 1411, 24 h, average of three readings) [µg/mL] | MIC ([4]; NCIM2901, S. aureus NCIM-2901, 24 h, average of three readings, read-out: MIC100) [µg/mL] | MIC100 ([4]; S. aureus NCIM-2901, 24 h, average of three readings) [µg/mL]
COc1ccc2occ(C3NC(=O)NC(C)=C3C(=O)NN)c(=O)c2c1 (centres unmarked) [Compound 6e, 4-(6-Methoxy-4-oxo-4H-chromen-3-yl)-6-methyl-2-oxo-1,2,3,4-tetrahydropyrimidine-5-carbohydrazide] | 315 | > 60 | 58 (≈ 168 µM) | 156 (≈ 453 µM) | 16 (≈ 46.5 µM) | 32 (≈ 92.9 µM) | 18 (≈ 52.3 µM) | 28 (≈ 81.3 µM) | 30 (≈ 87.1 µM) | 16 (≈ 46.5 µM) | 30 (≈ 87.1 µM) | 208 to 210 | – | – | –
N[C@@H]1CON=C1O [D-Cycloserine, reference compound] | 276 | – | 16 (≈ 157 µM) | – | – | – | – | – | – | – | – | – | 16 (≈ 157 µM) | 32 (≈ 313 µM) | –
CC1=C(C(=O)NN)C(c2coc3ccccc3c2=O)NC(=S)N1 (centres unmarked) [Compound 6b, 6-Methyl-4-(4-oxo-4H-chromen-3-yl)-2-thioxo-1,2,3,4-tetrahydropyrimidine-5-carbohydrazide] | 124 | 34 (≈ 103 µM) | 34 (≈ 103 µM) | 76 (≈ 230 µM) | 60 (≈ 182 µM) | 58 (≈ 176 µM) | 48 (≈ 145 µM) | 64 (≈ 194 µM) | 60 (≈ 182 µM) | 50 (≈ 151 µM) | 54 (≈ 163 µM) | 198 to 200 | – | – | –
CC1=C(C(=O)NN)C(c2coc3ccccc3c2=O)NC(=O)N1 (centres unmarked) [Compound 6a, 6-Methyl-2-oxo-4-(4-oxo-4H-chromen-3-yl)-1,2,3,4-tetrahydropyrimidine-5-carbohydrazide] | 127 | 34 (≈ 108 µM) | 32 (≈ 102 µM) | 66 (≈ 210 µM) | 68 (≈ 216 µM) | 60 (≈ 191 µM) | 55 (≈ 175 µM) | 78 (≈ 248 µM) | 68 (≈ 216 µM) | 58 (≈ 185 µM) | 76 (≈ 242 µM) | 256 to 258 | – | – | –
CCOC(=O)C1=C(C)NC(=O)NC1c1coc2ccc(OC)cc2c1=O (centres unmarked) [Compound 4d, Ethyl 4-(6-methoxy-4-oxo-4H-chromen-3-yl)-6-methyl-2-oxo-1,2,3,4-tetrahydropyrimidine-5-carboxylate] | 330 | 55 (≈ 153 µM) | 54 (≈ 151 µM) | > 200 | 20 (≈ 55.8 µM) | 36 (≈ 100 µM) | 20 (≈ 55.8 µM) | 34 (≈ 94.9 µM) | 38 (≈ 106 µM) | 24 (≈ 67 µM) | 36 (≈ 100 µM) | 230 to 232 | – | – | –
CCOC(=O)C1=C(C)NC(=O)NC1c1coc2ccccc2c1=O (centres unmarked) [Compound 4a, Ethyl 6-methyl-2-oxo-4-(4-oxo-4H-chromen-3-yl)-1,2,3,4-tetrahydropyrimidine-5-carboxylate] | 158 | 46 (≈ 140 µM) | 40 (≈ 122 µM) | 64 (≈ 195 µM) | 66 (≈ 201 µM) | 65 (≈ 198 µM) | 57 (≈ 174 µM) | > 100 | > 100 | 60 (≈ 183 µM) | 82 (≈ 250 µM) | 270 to 272 | – | – | –
CCOC(=O)C1=C(C)NC(=S)NC1c1coc2ccccc2c1=O (centres unmarked) [Compound 4b, Ethyl 6-methyl-4-(4-oxo-4H-chromen-3-yl)-2-thioxo-1,2,3,4-tetrahydropyrimidine-5-carboxylate] | 296 | 50 (≈ 145 µM) | 50 (≈ 145 µM) | 68 (≈ 197 µM) | 66 (≈ 192 µM) | 60 (≈ 174 µM) | 52 (≈ 151 µM) | 64 (≈ 186 µM) | 66 (≈ 192 µM) | 55 (≈ 160 µM) | 58 (≈ 168 µM) | 210 to 212 | – | – | –
CCOC(=O)C1=C(C)NC(=S)NC1c1coc2ccc(OC)cc2c1=O (centres unmarked) [Compound 4e, Ethyl 4-(6-methoxy-4-oxo-4H-chromen-3-yl)-6-methyl-2-thioxo-1,2,3,4-tetrahydropyrimidine-5-carboxylate] | 335 | 58 (≈ 155 µM) | > 60 | > 200 | 18 (≈ 48.1 µM) | 34 (≈ 90.8 µM) | 18 (≈ 48.1 µM) | 30 (≈ 80.1 µM) | 32 (≈ 85.5 µM) | 20 (≈ 53.4 µM) | 30 (≈ 80.1 µM) | 222 to 224 | – | – | –
CCOC(=O)C1=C(C)NC(=S)NC1c1coc2ccc(F)cc2c1=O (centres unmarked) [Compound 4f, Ethyl 4-(6-fluoro-4-oxo-4H-chromen-3-yl)-6-methyl-2-thioxo-1,2,3,4-tetrahydropyrimidine-5-carboxylate] | 280 | 48 (≈ 132 µM) | 44 (≈ 121 µM) | 72 (≈ 199 µM) | 34 (≈ 93.8 µM) | 55 (≈ 152 µM) | 34 (≈ 93.8 µM) | 46 (≈ 127 µM) | 44 (≈ 121 µM) | 30 (≈ 82.8 µM) | 48 (≈ 132 µM) | 228 to 230 | – | – | –
CCOC(=O)C1=C(C)NC(=O)NC1c1coc2ccc(F)cc2c1=O (centres unmarked) [Compound 4c, Ethyl 4-(6-fluoro-4-oxo-4H-chromen-3-yl)-6-methyl-2-oxo-1,2,3,4-tetrahydropyrimidine-5-carboxylate] | 155 | 38 (≈ 110 µM) | 34 (≈ 98.2 µM) | 30 (≈ 86.6 µM) | 58 (≈ 167 µM) | 62 (≈ 179 µM) | 44 (≈ 127 µM) | 52 (≈ 150 µM) | 58 (≈ 167 µM) | 46 (≈ 133 µM) | 58 (≈ 167 µM) | 200 to 202 | – | – | –
CC1=C(C(=O)NN)C(c2coc3ccc(F)cc3c2=O)NC(=S)N1 (centres unmarked) [Compound 6d, 4-(6-Fluoro-4-oxo-4H-chromen-3-yl)-6-methyl-2-thioxo-1,2,3,4-tetrahydropyrimidine-5-carbohydrazide] | 111 | 16 (≈ 45.9 µM) | 18 (≈ 51.7 µM) | 32 (≈ 91.9 µM) | 30 (≈ 86.1 µM) | 52 (≈ 149 µM) | 28 (≈ 80.4 µM) | 44 (≈ 126 µM) | 40 (≈ 115 µM) | 28 (≈ 80.4 µM) | 44 (≈ 126 µM) | 146 to 148 | – | – | 40 (≈ 115 µM)
